system: persian speedwell; test: Test Example 4: herbicidal effect by soil treatment (Table 19, symbol R); format: in vivo, Persian speedwell (Veronica persica); conditions: AAH 320 g/ha
Method in brief: (§1)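 Seeds were sown in sterilized diluvial soil and covered with about 1.5 cm of soil. An emulsion formulation diluted with water to a predetermined herbicide amount was sprayed evenly onto the soil surface. Plants grew in a greenhouse at 25° C. to 30° C., and the effect was scored three weeks after application using criteria from an earlier test.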

Q: For `CCCC(=O)Oc1c(OC)nn(C)c(=O)c1-c1c(-c2ccc(C#N)cc2)sc2ccccc12` [1-171], which “R: persian speedwell, herbicidal effect rating” value is on record?
A: The value was 4 (Herbicidal rate of 70% or more and less than 90%).

system: Chinese sprangletop; test: Test Example 3: herbicidal effect by foliage application, Wagner pot (Table 18, symbol D); format: in vivo, chinese sprangletop (Leptochloa chinensis); conditions: 320 g/ha
Method in brief: (§2)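 Plants were sown in alluvial soil held under 0.1–0.5 cm standing water and grown 14 days in a greenhouse at 25–30 °C. An emulsifiable formulation, water-diluted to the set dose, was then sprayed onto the foliage, and effects were scored three weeks later using previously defined criteria.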

Q: How did the “herbicidal effect on D (Chinese sprangletop), rating 0-5” value turn out when `CCCC(=O)Oc1c(OC)nn(C)c(=O)c1-c1c(-c2ccc(C#N)cc2)sc2ccccc12` [1-171] was run?
A: The value was 0 (Herbicidal rate of 5% or less (almost no effect)).

system: rice flat sedge; test: Test Example 3: herbicidal effect by foliage application, Wagner pot (Table 18, symbol E); format: in vivo, rice flat sedge (Cyperus iria); conditions: 320 g/ha
Method in brief: as §2

Q: With `CCCC(=O)Oc1c(OC)nn(C)c(=O)c1-c1c(-c2ccc(C#N)cc2)sc2ccccc12` [1-171] as the molecule, how does the “herbicidal effect on E (rice flat sedge), rating 0-5” value read?
A: Its value is 4 (Herbicidal rate of 70% or more and less than 90%).

system: green foxtail; test: Test Example 4: herbicidal effect by soil treatment (Table 19, symbol G); format: in vivo, green foxtail (Setaria viridis); conditions: AAH 320 g/ha
Method in brief: as §1

Q: For `CCCC(=O)Oc1c(OC)nn(C)c(=O)c1-c1c(-c2ccc(C#N)cc2)sc2ccccc12` [1-171], which “G: green foxtail, herbicidal effect rating” value is on record?
A: Its value is 0 (Herbicidal rate of 5% or less (almost no effect)).

system: velvetleaf; test: Test Example 5: herbicidal effect by foliage application, plastic box (Table 20, symbol M); format: in vivo, velvetleaf (Abutilon theophrasti); conditions: foliage application, AAH 320 g/ha, three weeks after application
Method in brief: (§3)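 Plants sown in sterilized diluvial soil and grown 14 days in a greenhouse at 25° C to 30° C, then sprayed on the foliage with the compound's emulsion diluted in water to a predetermined herbicide amount. Injury to weeds and crops scored three weeks after application on a visual rating scale.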

Q: With `CCCC(=O)Oc1c(OC)nn(C)c(=O)c1-c1c(-c2ccc(C#N)cc2)sc2ccccc12` [1-171] as the molecule, how does the “M: velvetleaf, herbicidal effect” value read?
A: The value was 4 (Herbicidal rate of 70% or more and less than 90%).

system: lambsquarters; test: Test Example 5: herbicidal effect by foliage application, plastic box (Table 20, symbol O); format: in vivo, lambsquarters (Chenopodium album); conditions: foliage application, AAH 320 g/ha, three weeks after application
Method in brief: as §3

Q: Which “O: lambsquarters, herbicidal effect” value does the source give for `CCCC(=O)Oc1c(OC)nn(C)c(=O)c1-c1c(-c2ccc(C#N)cc2)sc2ccccc12` [1-171] here?
A: The value was 4 (Herbicidal rate of 70% or more and less than 90%).

system: green foxtail; test: Test Example 5: herbicidal effect by foliage application, plastic box (Table 20, symbol G); format: in vivo, green foxtail (Setaria viridis); conditions: foliage application, AAH 320 g/ha, three weeks after application
Method in brief: as §3

Q: Which “G: green foxtail, herbicidal effect” value does the source give for `CCCC(=O)Oc1c(OC)nn(C)c(=O)c1-c1c(-c2ccc(C#N)cc2)sc2ccccc12` [1-171] here?
A: Its value is 0 (Herbicidal rate of 5% or less (almost no effect)).

system: chickweed; test: Test Example 4: herbicidal effect by soil treatment (Table 19, symbol P); format: in vivo, common chickweed (Stellaria media); conditions: AAH 320 g/ha
Method in brief: as §1

Q: With `CCCC(=O)Oc1c(OC)nn(C)c(=O)c1-c1c(-c2ccc(C#N)cc2)sc2ccccc12` [1-171] as the molecule, how does the “P: chickweed, herbicidal effect rating” value read?
A: Its value is 5 (Herbicidal rate of 90% or more (almost completely withered)).

system: barnyard grass; test: Test Example 3: herbicidal effect by foliage application, Wagner pot (Table 18, symbol H); format: in vivo, barnyard grass (Echinochloa crus-galli); conditions: 320 g/ha
Method in brief: as §2

Q: How did the “herbicidal effect on H (barnyard grass), rating 0-5” value turn out when `CCCC(=O)Oc1c(OC)nn(C)c(=O)c1-c1c(-c2ccc(C#N)cc2)sc2ccccc12` [1-171] was run?
A: The value was 3 (Herbicidal rate of 40% or more and less than 70%).

system: barnyard grass; test: Test Example 4: herbicidal effect by soil treatment (Table 19, symbol H); format: in vivo, barnyard grass (Echinochloa crus-galli); conditions: AAH 320 g/ha
Method in brief: as §1

Q: `CCCC(=O)Oc1c(OC)nn(C)c(=O)c1-c1c(-c2ccc(C#N)cc2)sc2ccccc12` [1-171] was tested. Which “H: barnyard grass, herbicidal effect rating” value did it give?
A: The value was 0 (Herbicidal rate of 5% or less (almost no effect)).

system: southern crabgrass; test: Test Example 5: herbicidal effect by foliage application, plastic box (Table 20, symbol F); format: in vivo, southern crabgrass (Digitaria ciliaris); conditions: foliage application, AAH 320 g/ha, three weeks after application
Method in brief: as §3

Q: How did the “F: southern crabgrass, herbicidal effect” value turn out when `CCCC(=O)Oc1c(OC)nn(C)c(=O)c1-c1c(-c2ccc(C#N)cc2)sc2ccccc12` [1-171] was run?
A: Its value is 0 (Herbicidal rate of 5% or less (almost no effect)).

system: Italian ryegrass; test: Test Example 4: herbicidal effect by soil treatment (Table 19, symbol K); format: in vivo, Italian ryegrass (Lolium multiflorum); conditions: AAH 320 g/ha
Method in brief: as §1

Q: Which “K: Italian ryegrass, herbicidal effect rating” value does the source give for `CCCC(=O)Oc1c(OC)nn(C)c(=O)c1-c1c(-c2ccc(C#N)cc2)sc2ccccc12` [1-171] here?
A: Its value is 0 (Herbicidal rate of 5% or less (almost no effect)).

system: lambsquarters; test: Test Example 4: herbicidal effect by soil treatment (Table 19, symbol O); format: in vivo, lambsquarters (Chenopodium album); conditions: AAH 320 g/ha
Method in brief: as §1

Q: How did the “O: lambsquarters, herbicidal effect rating” value turn out when `CCCC(=O)Oc1c(OC)nn(C)c(=O)c1-c1c(-c2ccc(C#N)cc2)sc2ccccc12` [1-171] was run?
A: Its value is 3 (Herbicidal rate of 40% or more and less than 70%).

system: barnyard grass; test: Test Example 5: herbicidal effect by foliage application, plastic box (Table 20, symbol H); format: in vivo, barnyard grass (Echinochloa crus-galli); conditions: foliage application, AAH 320 g/ha, three weeks after application
Method in brief: as §3

Q: Which “H: barnyard grass, herbicidal effect” value does the source give for `CCCC(=O)Oc1c(OC)nn(C)c(=O)c1-c1c(-c2ccc(C#N)cc2)sc2ccccc12` [1-171] here?
A: Its value is 0 (Herbicidal rate of 5% or less (almost no effect)).

system: southern crabgrass; test: Test Example 4: herbicidal effect by soil treatment (Table 19, symbol F); format: in vivo, southern crabgrass (Digitaria ciliaris); conditions: AAH 320 g/ha
Method in brief: as §1

Q: How did the “F: southern crabgrass, herbicidal effect rating” value turn out when `CCCC(=O)Oc1c(OC)nn(C)c(=O)c1-c1c(-c2ccc(C#N)cc2)sc2ccccc12` [1-171] was run?
A: The value was 5 (Herbicidal rate of 90% or more (almost completely withered)).

system: windgrass; test: Test Example 5: herbicidal effect by foliage application, plastic box (Table 20, symbol L); format: in vivo, windgrass (Apera spica-venti); conditions: foliage application, AAH 320 g/ha, three weeks after application
Method in brief: as §3

Q: With `CCCC(=O)Oc1c(OC)nn(C)c(=O)c1-c1c(-c2ccc(C#N)cc2)sc2ccccc12` [1-171] as the molecule, how does the “L: windgrass, herbicidal effect” value read?
A: The value was 0 (Herbicidal rate of 5% or less (almost no effect)).

system: blackgrass; test: Test Example 5: herbicidal effect by foliage application, plastic box (Table 20, symbol J); format: in vivo, blackgrass (Alopecurus myosuroides); conditions: foliage application, AAH 320 g/ha, three weeks after application
Method in brief: as §3

Q: `CCCC(=O)Oc1c(OC)nn(C)c(=O)c1-c1c(-c2ccc(C#N)cc2)sc2ccccc12` [1-171] was tested. Which “J: blackgrass, herbicidal effect” value did it give?
A: Its value is 0 (Herbicidal rate of 5% or less (almost no effect)).

system: Italian ryegrass; test: Test Example 5: herbicidal effect by foliage application, plastic box (Table 20, symbol K); format: in vivo, Italian ryegrass (Lolium multiflorum); conditions: foliage application, AAH 320 g/ha, three weeks after application
Method in brief: as §3

Q: For `CCCC(=O)Oc1c(OC)nn(C)c(=O)c1-c1c(-c2ccc(C#N)cc2)sc2ccccc12` [1-171], which “K: Italian ryegrass, herbicidal effect” value is on record?
A: The value was 0 (Herbicidal rate of 5% or less (almost no effect)).

system: velvetleaf; test: Test Example 4: herbicidal effect by soil treatment (Table 19, symbol M); format: in vivo, velvetleaf (Abutilon theophrasti); conditions: AAH 320 g/ha
Method in brief: as §1

Q: With `CCCC(=O)Oc1c(OC)nn(C)c(=O)c1-c1c(-c2ccc(C#N)cc2)sc2ccccc12` [1-171] as the molecule, how does the “M: velvetleaf, herbicidal effect rating” value read?
A: Its value is 0 (Herbicidal rate of 5% or less (almost no effect)).

system: windgrass; test: Test Example 4: herbicidal effect by soil treatment (Table 19, symbol L); format: in vivo, windgrass (Apera spica-venti); conditions: AAH 320 g/ha
Method in brief: as §1

Q: How did the “L: windgrass, herbicidal effect rating” value turn out when `CCCC(=O)Oc1c(OC)nn(C)c(=O)c1-c1c(-c2ccc(C#N)cc2)sc2ccccc12` [1-171] was run?
A: Its value is 0 (Herbicidal rate of 5% or less (almost no effect)).

system: persian speedwell; test: Test Example 5: herbicidal effect by foliage application, plastic box (Table 20, symbol R); format: in vivo, Persian speedwell (Veronica persica); conditions: foliage application, AAH 320 g/ha, three weeks after application
Method in brief: as §3

Q: `CCCC(=O)Oc1c(OC)nn(C)c(=O)c1-c1c(-c2ccc(C#N)cc2)sc2ccccc12` [1-171] was tested. Which “R: persian speedwell, herbicidal effect” value did it give?
A: The value was 4 (Herbicidal rate of 70% or more and less than 90%).

system: chickweed; test: Test Example 5: herbicidal effect by foliage application, plastic box (Table 20, symbol P); format: in vivo, common chickweed (Stellaria media); conditions: foliage application, AAH 320 g/ha, three weeks after application
Method in brief: as §3

Q: For `CCCC(=O)Oc1c(OC)nn(C)c(=O)c1-c1c(-c2ccc(C#N)cc2)sc2ccccc12` [1-171], which “P: chickweed, herbicidal effect” value is on record?
A: The value was 5 (Herbicidal rate of 90% or more (almost completely withered)).

system: redroot pigweed; test: Test Example 5: herbicidal effect by foliage application, plastic box (Table 20, symbol N); format: in vivo, redroot pigweed (Amaranthus retroflexus); conditions: foliage application, AAH 320 g/ha, three weeks after application
Method in brief: as §3

Q: For `CCCC(=O)Oc1c(OC)nn(C)c(=O)c1-c1c(-c2ccc(C#N)cc2)sc2ccccc12` [1-171], which “N: redroot pigweed, herbicidal effect” value is on record?
A: Its value is 5 (Herbicidal rate of 90% or more (almost completely withered)).

system: wild oat; test: Test Example 5: herbicidal effect by foliage application, plastic box (Table 20, symbol I); format: in vivo, wild oat (Avena fatua); conditions: foliage application, AAH 320 g/ha, three weeks after application
Method in brief: as §3

Q: Which “I: wild oat, herbicidal effect” value does the source give for `CCCC(=O)Oc1c(OC)nn(C)c(=O)c1-c1c(-c2ccc(C#N)cc2)sc2ccccc12` [1-171] here?
A: The value was 0 (Herbicidal rate of 5% or less (almost no effect)).

system: wild oat; test: Test Example 4: herbicidal effect by soil treatment (Table 19, symbol I); format: in vivo, wild oat (Avena fatua); conditions: AAH 320 g/ha
Method in brief: as §1

Q: How did the “I: wild oat, herbicidal effect rating” value turn out when `CCCC(=O)Oc1c(OC)nn(C)c(=O)c1-c1c(-c2ccc(C#N)cc2)sc2ccccc12` [1-171] was run?
A: The value was 0 (Herbicidal rate of 5% or less (almost no effect)).

system: blackgrass; test: Test Example 4: herbicidal effect by soil treatment (Table 19, symbol J); format: in vivo, blackgrass (Alopecurus myosuroides); conditions: AAH 320 g/ha
Method in brief: as §1

Q: With `CCCC(=O)Oc1c(OC)nn(C)c(=O)c1-c1c(-c2ccc(C#N)cc2)sc2ccccc12` [1-171] as the molecule, how does the “J: blackgrass, herbicidal effect rating” value read?
A: The value was 0 (Herbicidal rate of 5% or less (almost no effect)).

system: redroot pigweed; test: Test Example 4: herbicidal effect by soil treatment (Table 19, symbol N); format: in vivo, redroot pigweed (Amaranthus retroflexus); conditions: AAH 320 g/ha
Method in brief: as §1

Q: How did the “N: redroot pigweed, herbicidal effect rating” value turn out when `CCCC(=O)Oc1c(OC)nn(C)c(=O)c1-c1c(-c2ccc(C#N)cc2)sc2ccccc12` [1-171] was run?
A: Its value is 5 (Herbicidal rate of 90% or more (almost completely withered)).

— patent US20230085307A1, “PYRIDAZINONE COMPOUND AND HERBICIDE” (NISSAN CHEMICAL CORPORATION, priority 2019, published 2023)
